Two compounds from ChEMBL document CHEMBL1133799, “A disubstituted NAD+ analogue is a nanomolar inhibitor of trypanosomal glyceraldehyde-3-phosphate dehydrogenase” (Bioorg Med Chem Lett, 2001) can be followed below.

Data set [1] deals with COc1cccc(C(=O)N[C@@H]2[C@H](O)[C@@H](CO)O[C@H]2n2cnc3c(NCc4cccc5ccccc45)ncnc32)c1.
Description: Binding affinity for NAD- in human glyceraldehyde-3-phosphate dehydrogenase (GAPDH)

For orientation: Km means the concentration of substrate that gives half-maximal velocity.

Sequence of Glyceraldehyde-3-phosphate dehydrogenase (Homo sapiens), P04406 (P04406 whole entry): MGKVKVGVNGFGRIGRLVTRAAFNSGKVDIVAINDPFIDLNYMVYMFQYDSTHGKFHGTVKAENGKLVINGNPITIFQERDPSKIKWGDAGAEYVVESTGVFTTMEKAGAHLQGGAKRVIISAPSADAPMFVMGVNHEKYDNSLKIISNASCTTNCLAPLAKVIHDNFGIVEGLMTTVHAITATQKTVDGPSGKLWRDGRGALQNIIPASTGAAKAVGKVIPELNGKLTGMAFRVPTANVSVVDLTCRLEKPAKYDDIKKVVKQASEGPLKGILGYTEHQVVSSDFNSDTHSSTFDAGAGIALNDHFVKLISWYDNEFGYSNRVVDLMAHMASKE
Description for Trypanosoma: Binding affinity for NAD- in trypanosomal glyceraldehyde-3-phosphate dehydrogenase (GAPDH)

For the compound `COc1cccc(C(=O)N[C@@H]2[C@H](O)[C@@H](CO)O[C@H]2n2cnc3c(NCc4cccc5ccccc45)ncnc32)c1`, the Km in the data set with Trypanosoma came to 0.45 µM.
“Glyceraldehyde-3-phosphate dehydrogenase (Homo sapiens), P04406”: in data set [1], the Km came out at 0.04 µM.
